Measured values from US7582649B2, “Hydroxy alkyl substituted 1,3,8-triazaspiro[4.5]decan-4-one derivatives useful for the treatment of ORL-1 receptor mediated disorders” (Janssen Pharmaceutica, NV, priority 2002, dated 2009).
Like-named read-outs stand apart in the source and are kept apart here.

Tests used:
mu opioid receptor = mu opioid receptor (Homo sapiens, UniProt P35372); test: Filtration binding assay: mu opioid receptor
D2 receptor = D2 receptor (Homo sapiens, UniProt P14416); test: Filtration binding assay, dopamine (Spiperone-I125)
D2 receptor, sequence (P14416 whole entry): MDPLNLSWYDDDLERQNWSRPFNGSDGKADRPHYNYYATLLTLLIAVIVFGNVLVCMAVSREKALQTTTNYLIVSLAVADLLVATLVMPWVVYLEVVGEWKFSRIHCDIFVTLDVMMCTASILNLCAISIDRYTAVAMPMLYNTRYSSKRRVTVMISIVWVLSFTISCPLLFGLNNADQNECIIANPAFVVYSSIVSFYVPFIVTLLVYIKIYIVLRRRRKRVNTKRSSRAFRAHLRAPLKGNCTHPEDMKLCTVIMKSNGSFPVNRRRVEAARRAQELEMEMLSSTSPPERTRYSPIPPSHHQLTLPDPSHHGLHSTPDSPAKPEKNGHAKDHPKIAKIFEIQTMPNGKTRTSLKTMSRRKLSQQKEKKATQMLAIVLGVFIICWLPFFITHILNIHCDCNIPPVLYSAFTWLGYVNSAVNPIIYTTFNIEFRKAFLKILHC

kappa opioid receptor = kappa opioid receptor (Homo sapiens, UniProt P41145); test: Filtration binding assay: kappa opioid receptor
kappa opioid receptor, sequence (P41145 whole entry): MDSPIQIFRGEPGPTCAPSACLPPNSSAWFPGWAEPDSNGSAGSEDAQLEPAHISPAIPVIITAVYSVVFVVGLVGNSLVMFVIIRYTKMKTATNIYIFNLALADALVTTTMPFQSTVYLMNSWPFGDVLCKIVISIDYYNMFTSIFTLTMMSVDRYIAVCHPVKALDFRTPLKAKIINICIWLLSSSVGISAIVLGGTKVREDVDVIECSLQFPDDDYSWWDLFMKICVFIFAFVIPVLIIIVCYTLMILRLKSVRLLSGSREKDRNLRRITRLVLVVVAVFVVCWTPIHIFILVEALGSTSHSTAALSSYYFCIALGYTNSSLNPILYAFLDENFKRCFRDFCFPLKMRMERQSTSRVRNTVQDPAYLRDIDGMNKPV

Long-Evans Hooded rats [1] = settings: rat, in vivo; for Total Entries (EPM), % Change / Total Entries (EPM), Mean / reduction of total number of entries into various zones of the maze: male, Long-Evans Hooded; for Total Entries (EPM), % Change / Total Entries (EPM), Mean / reduction of total number of entries into various zones of the maze / % Open Arm Entries (EPM), % Change / % Open Arm Entries (EPM), Mean / % Open Arm Time (EPM), % Change / % Open Arm Time (EPM), Mean / percent open arm entries, increase as compared to vehicle: po
Long-Evans Hooded rats [2] = settings: male, rat, in vivo, po
delta opioid receptor = delta opioid receptor (Homo sapiens, UniProt P41143); test: Filtration binding assay: delta opioid receptor
delta opioid receptor, sequence (P41143 whole entry): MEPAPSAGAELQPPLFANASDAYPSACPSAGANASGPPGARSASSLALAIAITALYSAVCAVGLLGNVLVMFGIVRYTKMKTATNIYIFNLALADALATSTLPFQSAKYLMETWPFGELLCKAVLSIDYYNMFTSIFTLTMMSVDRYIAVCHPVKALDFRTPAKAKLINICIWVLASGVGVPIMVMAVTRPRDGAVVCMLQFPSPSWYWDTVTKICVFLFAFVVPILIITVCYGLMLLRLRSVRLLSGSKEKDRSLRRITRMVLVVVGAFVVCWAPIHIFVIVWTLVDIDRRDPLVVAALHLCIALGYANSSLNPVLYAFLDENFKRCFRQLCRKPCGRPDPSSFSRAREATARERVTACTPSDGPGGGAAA

rats = settings: rat, in vivo, ip
[3] = D2 receptor, Spiperone-I125, read-out: IC50

mu opioid receptor, sequence (P35372 whole entry): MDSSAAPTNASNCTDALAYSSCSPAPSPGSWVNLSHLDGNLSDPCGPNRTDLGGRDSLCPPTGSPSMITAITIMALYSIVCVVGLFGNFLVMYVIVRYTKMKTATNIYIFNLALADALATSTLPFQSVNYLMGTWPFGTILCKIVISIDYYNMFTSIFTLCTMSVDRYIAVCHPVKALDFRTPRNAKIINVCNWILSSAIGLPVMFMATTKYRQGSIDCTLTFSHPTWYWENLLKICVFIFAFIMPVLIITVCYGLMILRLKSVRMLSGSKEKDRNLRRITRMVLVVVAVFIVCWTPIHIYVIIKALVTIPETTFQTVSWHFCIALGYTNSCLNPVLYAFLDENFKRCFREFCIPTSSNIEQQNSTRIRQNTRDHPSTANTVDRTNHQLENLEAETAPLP

CCN(C)C[C@H](O)CN1CN(c2ccc(F)cc2)C2(CCN(Cc3cccc4cccc(C)c34)CC2)C1=O [Compound #440, 3-[3-(Ethyl-methyl-amino)-2-hydroxy-(S)-propyl]-1-(4-fluoro-phenyl)-8-(8-methyl-naphthalen-1-ylmethyl)-1,3,8-triaza-spiro[4.5]decan-4-one]
IC50 (mu opioid receptor): > 10000 nM | IC50 (D2 receptor; [3]): 1520 nM | IC50 (kappa opioid receptor): > 10000 nM

NC[C@H](O)CN1CN(c2ccc(F)cc2)C2(CCN([C@@H]3Cc4cccc5cccc3c45)CC2)C1=O [Compound #424, (R)-8-Acenaphthen-1-yl-3-(3-amino-2-hydroxy-(S)-propyl)-1-(4-fluoro-phenyl)-1,3,8-triaza-spiro[4.5]decan-4-one]
IC50 (mu opioid receptor): 280 nM | Total Entries (EPM), % Change (Long-Evans Hooded rats [1]; 0.3 mg/kg): −6.9% | Total Entries (EPM), Mean (Long-Evans Hooded rats [1]; 0.3 mg/kg): 90.0 | Total Entries (EPM), % Change (Long-Evans Hooded rats [1]; 1 mg/kg): −5.3% | Total Entries (EPM), Mean (Long-Evans Hooded rats [1]; 1 mg/kg): 91.5 | reduction of total number of entries into various zones of the maze (Long-Evans Hooded rats [1]; 1 mg/kg): 18.6% | Total Entries (EPM), % Change (Long-Evans Hooded rats [1]; 3 mg/kg): −0.4% | Total Entries (EPM), Mean (Long-Evans Hooded rats [1]; 3 mg/kg): 96.3 | reduction of total number of entries into various zones of the maze (Long-Evans Hooded rats [1]; 3 mg/kg): 60.3% | Total Entries (EPM), % Change (Long-Evans Hooded rats [1]; 10 mg/kg): 6.1% | Total Entries (EPM), Mean (Long-Evans Hooded rats [1]; 10 mg/kg): 102.6 | reduction of total number of entries into various zones of the maze (Long-Evans Hooded rats [1]; 10 mg/kg): 76.7% | percent open arm entries (Long-Evans Hooded rats [1]): significant increases | percent open arm time (Long-Evans Hooded rats [1]): significant increases | percent open arm time, increase as compared to vehicle (Long-Evans Hooded rats [1]): 97.5% | % Open Arm Entries (EPM), % Change (Long-Evans Hooded rats [1]; 0.3 mg/kg): 33.8% | % Open Arm Entries (EPM), Mean (Long-Evans Hooded rats [1]; 0.3 mg/kg): 7.33% | % Open Arm Time (EPM), % Change (Long-Evans Hooded rats [1]; 0.3 mg/kg): 70.1% | % Open Arm Time (EPM), Mean (Long-Evans Hooded rats [1]; 0.3 mg/kg): 9.80% | % Open Arm Entries (EPM), % Change (Long-Evans Hooded rats [1]; 1 mg/kg): 36.7% | % Open Arm Entries (EPM), Mean (Long-Evans Hooded rats [1]; 1 mg/kg): 7.49% | % Open Arm Time (EPM), % Change (Long-Evans Hooded rats [1]; 1 mg/kg): 69.4% | % Open Arm Time (EPM), Mean (Long-Evans Hooded rats [1]; 1 mg/kg): 9.76% | % Open Arm Entries (EPM), % Change (Long-Evans Hooded rats [1]; 3 mg/kg): 44.5% | % Open Arm Entries (EPM), Mean (Long-Evans Hooded rats [1]; 3 mg/kg): 7.92% | % Open Arm Time (EPM), % Change (Long-Evans Hooded rats [1]; 3 mg/kg): 75.3% | % Open Arm Time (EPM), Mean (Long-Evans Hooded rats [1]; 3 mg/kg): 10.1% | percent open arm entries, increase as compared to vehicle (Long-Evans Hooded rats [1]; 3 mg/kg): 205% | % Open Arm Entries (EPM), % Change (Long-Evans Hooded rats [1]; 10 mg/kg): 36.7% | % Open Arm Entries (EPM), Mean (Long-Evans Hooded rats [1]; 10 mg/kg): 7.49% | % Open Arm Time (EPM), % Change (Long-Evans Hooded rats [1]; 10 mg/kg): 30.9% | % Open Arm Time (EPM), Mean (Long-Evans Hooded rats [1]; 10 mg/kg): 7.54% | percent open arm entries, increase as compared to vehicle (Long-Evans Hooded rats [1]; 10 mg/kg): 237% | IC50 (D2 receptor; [3]): 278 nM | Horizontal Activity (SMA), % Change (Long-Evans Hooded rats [2]; 0.3 mg/kg): 5.3% | Horizontal Activity (SMA), Mean (Long-Evans Hooded rats [2]; 0.3 mg/kg): 3033 | Vertical Movement (SMA), % Change (Long-Evans Hooded rats [2]; 0.3 mg/kg): 11.2% | Vertical Movement (SMA), Mean (Long-Evans Hooded rats [2]; 0.3 mg/kg): 54.6 | Horizontal Activity (SMA), % Change (Long-Evans Hooded rats [2]; 1 mg/kg): −4.5% | Horizontal Activity (SMA), Mean (Long-Evans Hooded rats [2]; 1 mg/kg): 2752 | Vertical Movement (SMA), % Change (Long-Evans Hooded rats [2]; 1 mg/kg): 2.4% | Vertical Movement (SMA), Mean (Long-Evans Hooded rats [2]; 1 mg/kg): 50.3 | reduction in number of vertical movements (rearing behavior) (Long-Evans Hooded rats [2]; 1 mg/kg): 17.8% | Horizontal Activity (SMA), % Change (Long-Evans Hooded rats [2]; 3 mg/kg): 14.5% | Horizontal Activity (SMA), Mean (Long-Evans Hooded rats [2]; 3 mg/kg): 3300 | Vertical Movement (SMA), % Change (Long-Evans Hooded rats [2]; 3 mg/kg): 15.7% | Vertical Movement (SMA), Mean (Long-Evans Hooded rats [2]; 3 mg/kg): 56.8 | reduction in horizontal activity (Long-Evans Hooded rats [2]; 3 mg/kg): 55% | reduction in number of vertical movements (rearing behavior) (Long-Evans Hooded rats [2]; 3 mg/kg): 73.4% | Horizontal Activity (SMA), % Change (Long-Evans Hooded rats [2]; 10 mg/kg): −10.2% | Horizontal Activity (SMA), Mean (Long-Evans Hooded rats [2]; 10 mg/kg): 2588 | Vertical Movement (SMA), % Change (Long-Evans Hooded rats [2]; 10 mg/kg): −10.1% | Vertical Movement (SMA), Mean (Long-Evans Hooded rats [2]; 10 mg/kg): 44.2 | reduction in horizontal activity (Long-Evans Hooded rats [2]; 10 mg/kg): 83.7% | reduction in number of vertical movements (rearing behavior) (Long-Evans Hooded rats [2]; 10 mg/kg): 93.9% | IC50 (delta opioid receptor): 280 nM | IC50 (kappa opioid receptor): 600 nM

CCCCN(Cc1ccccc1)C[C@H](O)CN1CN(c2ccc(F)cc2)C2(CCN(CC3CCCCCCC3)CC2)C1=O [Compound #64, 3-[3-(Benzyl-butyl-amino)-2-(S)-hydroxy-propyl]-8-cyclooctylmethyl-1-(4-fluoro-phenyl)-1,3,8-triaza-spiro[4.5]decan-4-one]
% Increase Mean No. of Shocks (rats; 0.3 mg/kg): −10% | % Increase Mean No. of Shocks (rats; 1 mg/kg): 25% | % Increase Mean No. of Shocks (rats; 3 mg/kg): 96% | % Increase Mean No. of Shocks (rats; 10 mg/kg): 150% | % Increase Mean No. of Shocks (rats; 30 mg/kg): −26%

CC(C)(C)N(Cc1ccccc1)C[C@H](O)CN1CN(c2ccc(F)cc2)C2(CCN(Cc3cccc4ccccc34)CC2)C1=O [compound 250]
IC50 (mu opioid receptor): 1200 nM | IC50 (delta opioid receptor): > 10000 nM | IC50 (kappa opioid receptor): 380 nM

Cc1ccc(CNC[C@H](O)CN2CN(c3ccc(F)cc3)C3(CCN(CC4CCCCCCC4)CC3)C2=O)cc1 [compound 41]
IC50 (mu opioid receptor): 2100 nM | IC50 (delta opioid receptor): > 10000 nM | IC50 (kappa opioid receptor): 250 nM

O=C1N(C[C@@H](O)CNc2ccncc2)CN(c2ccc(F)cc2)C12CCN(C1Cc3cccc4cccc1c34)CC2 (stereo partly shown) [Compound #327, 8-Acenaphthen-1-yl-1-(4-fluoro-phenyl)-3-[2-hydroxy-3-(pyridin-4-ylamino)-propyl]-1,3,8-triaza-spiro[4.5]decan-4-one]
IC50 (D2 receptor): 387 nM

CCN(C)C[C@H](O)CN1CN(c2ccc(F)cc2)C2(CCN([C@H]3Cc4cccc5cccc3c45)CC2)C1=O [compound 433]
IC50 (D2 receptor): 3520 nM

CNCCCNCC(O)CN1CN(c2ccc(F)cc2)C2(CCN(CC3CCC4CC3C4(C)C)CC2)C1=O (mixture of isomers) [compound 664]
Ki (mu opioid receptor): 260 nM | Ki (delta opioid receptor): > 5000 nM | Ki (kappa opioid receptor): 720 nM

O=C1N(C[C@@H](O)CNCCc2ccc3c(c2)OCO3)CN(c2ccc(F)cc2)C12CCN(Cc1cccc3ccccc13)CC2 [compound 254]
IC50 (mu opioid receptor): 2830 nM | IC50 (delta opioid receptor): > 10000 nM | IC50 (kappa opioid receptor): 800 nM

NC[C@@H](O)CN1CN(c2ccc(F)cc2)C2(CCN(CC3CCCCCCC3)CC2)C1=O [Compound #620, 3-(3-Amino-2-(R)-hydroxy-propyl)-8-cyclooctylmethyl-1-(4-fluoro-phenyl)-1,3,8-triaza-spiro[4.5]decan-4-one]
Ki (mu opioid receptor): 280 nM | Ki (delta opioid receptor): > 5000 nM | Ki (kappa opioid receptor): 190 nM

Cc1cccc2cccc(CN3CCC4(CC3)C(=O)N(C[C@H](O)CNCCCO)CN4c3ccc(F)cc3)c12 [Compound #651, 1-(4-Fluoro-phenyl)-3-[2-(R)-hydroxy-3-(3-hydroxy-propylamino)-propyl]-8-(8-methyl-naphthalen-1-ylmethyl)-1,3,8-triaza-spiro[4.5]decan-4-one]
Ki (mu opioid receptor): 670 nM | Ki (delta opioid receptor): > 5000 nM | Ki (kappa opioid receptor): 310 nM

O=C1N(C[C@@H](O)CNCCN2CCOCC2)CN(c2ccc(F)cc2)C12CCN(CC1CCCCCCC1)CC2 [Compound #1]
IC50 (mu opioid receptor): 620 nM | IC50 (delta opioid receptor): > 10000 nM | IC50 (kappa opioid receptor): 130 nM

O=C1N(C[C@@H](O)CNCCN2CCOCC2)CN(c2ccc(F)cc2)C12CCN(Cc1cccc3ccccc13)CC2 [compound 251]
IC50 (mu opioid receptor): 1580 nM | IC50 (delta opioid receptor): > 10000 nM | IC50 (kappa opioid receptor): 450 nM

CCCCN(Cc1ccccc1)C[C@H](O)CN1CN(c2ccccc2)C2(CCN(C3Cc4cccc5c4[C@@H](CCC5)C3)CC2)C1=O (stereo partly shown) [compound 54]
IC50 (mu opioid receptor): 350 nM | IC50 (delta opioid receptor): > 10000 nM | IC50 (kappa opioid receptor): 110 nM

COCCCNC[C@H](O)CN1CN(c2ccc(F)cc2)C2(CCN(Cc3cccc4cccc(C)c34)CC2)C1=O [compound 650]
Ki (mu opioid receptor): 740 nM | Ki (delta opioid receptor): > 5000 nM | Ki (kappa opioid receptor): 460 nM

COc1cc(CCNC[C@H](O)CN2CN(c3ccc(F)cc3)C3(CCN(Cc4cccc5ccccc45)CC3)C2=O)c([N+](=O)[O-])cc1OC [compound 255]
IC50 (mu opioid receptor): 2490 nM | IC50 (delta opioid receptor): > 10000 nM | IC50 (kappa opioid receptor): 620 nM
